Where two headings read alike, the source gives them in different places.
Legend:
[1] = system: Escherichia coli; assay: Antimicrobial activity enhancing action: MIC of novobiocin or erythromycin alone or in combined use with cyclodextrin derivative, Escherichia coli; assay type: cell-based
Experimental: The evaluation was performed by a procedure as follows. Specifically, before testing, each of the bacteria were incubated on a minimal salt medium combined with common bacteria-use dried broth or polypeptone and reached a logarithmic growth phase. […] Some of existing antimicrobial substances fail to exert their inherent antimicrobial activities, due to the bacterial membrane serving as a physical barrier. In these cases, the substances offer high minimum inhibitory concentrations (MICs) necessary for inhibiting the bacterial growth and are considered as having no antimicrobial (antibacterial) activity. In particular, this allows Gram-negative bacteria, which have not only a cytoplasmic membrane, but also a bacterial outer membrane, to have remarkable drug resistance. […] Next, the compound (cyclodextrin derivative) (a) represented by Chemical Formula (11) was evaluated for antimicrobial activity enhancing action through a test performed by a procedure similar to that in Example 3.

[2] = system: Pseudomonas aeruginosa; assay: Antimicrobial activity enhancing action: MIC of novobiocin or erythromycin alone or in combined use with cyclodextrin derivative, Pseudomonas aeruginosa; assay type: cell-based; details: cyclodextrin derivative 0 μg/mL (single use)
Experimental: The evaluation was performed by a procedure as follows. Specifically, before testing, each of the bacteria were incubated on a minimal salt medium combined with common bacteria-use dried broth or polypeptone and reached a logarithmic growth phase. […] The testing incubation was performed at an initial bacterial concentration of 1×10^4 cells per milliliter.
The test was performed using bacteria Escherichia coli and Pseudomonas aeruginosa.

Row | MIC ([1]; read-out: Minimum inhibitory concentration (MIC) of erythromycin, cyclodextrin derivative 0 μg/mL (single use)) [µg/mL] | MIC ([1]; cyclodextrin derivative 0 μg/mL (single use), read-out: Minimum inhibitory concentration (MIC) of novobiocin) [µg/mL] | Minimum inhibitory concentration (MIC) of novobiocin [2] [µg/mL] | MIC ([2]; read-out: Minimum inhibitory concentration (MIC) of novobiocin) [µg/mL] | SMILES
1 | 64 | – | – | – | CC[C@H]1OC(=O)[C@H](C)[C@@H](O[C@H]2C[C@@](C)(OC)[C@@H](O)[C@H](C)O2)[C@H](C)[C@@H](O[C@@H]2O[C@H](C)C[C@H](N(C)C)[C@H]2O)[C@](C)(O)C[C@@H](C)C(=O)[C@H](C)[C@@H](O)[C@]1(C)O [erythromycin]
2 | – | 128 | 2048 | 2050 | CO[C@@H]1[C@@H](OC(N)=O)[C@@H](O)[C@H](Oc2ccc3c(O)c(NC(=O)c4ccc(O)c(CC=C(C)C)c4)c(=O)oc3c2C)OC1(C)C [novobiocin]

Source: patent US20210300960A1, “SUGAR DERIVATIVE OR SALT THEREOF, AND ANTIBACTERIAL AGENT OR ANTIBACTERIAL ACTIVITY ENHANCER USING SAME” (NAGOYA INSTITUTE OF TECHNOLOGY, priority 2016, published 2021)
